{"source": "patent US12427145B2", "about": "“Controlled release pharmaceutical composition of Selexipag or it's active metabolite” (Innovate Therapeutics LLC, priority 2019, dated 2025)", "origin": "cited, not measured here", "key": {"[1]": {"details": "fasting condition"}, "[2]": {"details": "study AC-065A303, 52 subjects out of 218 subjects"}, "[3]": {"details": "oral immediate release dosage form, out of 575 subjects"}}, "note": "Like-named read-outs stand apart in the source and are kept apart here."}
{"smiles": "CC(C)N(CCCCOCC(=O)NS(C)(=O)=O)c1cnc(-c2ccccc2)c(-c2ccccc2)n1", "note": "[Selexipag]", "values": [{"measurement": "subjects reporting Headache", "setting": "[1]; 200 μg Selexipag, 1 out of 6 subjects", "value": 17, "unit": "%"}, {"measurement": "subjects reporting Headache", "setting": "[1]; 600 μg Selexipag, 2 out of 6 subjects", "value": 33, "unit": "%"}, {"measurement": "subjects reporting Headache", "setting": "[1]; 800 μg Selexipag, 5 out of 6 subjects", "value": 83, "unit": "%"}, {"measurement": "subjects with at least 1 adverse event leading to discontinuation of study drug", "setting": "[2]", "value": 24, "unit": "%"}, {"measurement": "Arthralgia, subjects", "setting": "[3]", "value": 11, "unit": "%"}, {"measurement": "Diarrhea, subjects", "setting": "[3]", "value": 42, "unit": "%"}, {"measurement": "Flushing, subjects", "setting": "[3]", "value": 12, "unit": "%"}, {"measurement": "Headache, subjects", "setting": "[3]", "value": 65, "unit": "%"}, {"measurement": "Jaw pain, subjects", "setting": "[3]", "value": 26, "unit": "%"}, {"measurement": "Myalgia, subjects", "setting": "[3]", "value": 16, "unit": "%"}, {"measurement": "Nausea, subjects", "setting": "[3]", "value": 33, "unit": "%"}, {"measurement": "Pain in Extremity, subjects", "setting": "[3]", "value": 17, "unit": "%"}, {"measurement": "Rash, subjects", "setting": "[3]", "value": 11, "unit": "%"}, {"measurement": "Vomiting, subjects", "setting": "[3]", "value": 18, "unit": "%"}]}
